{"source": "paper PMC4798942", "about": "(ACS chemical biology, 2015)", "type_in_all_cases": "biochemical", "key": {"human PHD2": {"molecular_target": "human PHD2 (Homo sapiens, UniProt Q9GZT9)", "sequence (Q9GZT9 2-426)": "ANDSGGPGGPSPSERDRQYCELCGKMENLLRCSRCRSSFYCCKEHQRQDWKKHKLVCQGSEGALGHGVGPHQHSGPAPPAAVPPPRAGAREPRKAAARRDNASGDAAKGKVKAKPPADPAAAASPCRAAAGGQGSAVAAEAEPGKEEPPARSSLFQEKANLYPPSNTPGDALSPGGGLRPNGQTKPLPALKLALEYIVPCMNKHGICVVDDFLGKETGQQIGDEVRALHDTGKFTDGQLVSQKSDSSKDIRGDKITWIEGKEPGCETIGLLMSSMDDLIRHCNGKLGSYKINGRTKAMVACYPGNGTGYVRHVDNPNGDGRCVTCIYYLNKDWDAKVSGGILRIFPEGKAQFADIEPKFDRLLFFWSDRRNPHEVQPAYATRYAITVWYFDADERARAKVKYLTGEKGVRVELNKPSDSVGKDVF", "assay": "inhibition of PHD2 activity in vitro"}, "[1]": {"molecular_target": "T1, human CP4H1 (collagen prolyl 4-hydroxylase 1, alpha(I)2beta2 holoenzyme) (Homo sapiens, UniProt P13674)", "T1 sequence (P13674 18-534)": "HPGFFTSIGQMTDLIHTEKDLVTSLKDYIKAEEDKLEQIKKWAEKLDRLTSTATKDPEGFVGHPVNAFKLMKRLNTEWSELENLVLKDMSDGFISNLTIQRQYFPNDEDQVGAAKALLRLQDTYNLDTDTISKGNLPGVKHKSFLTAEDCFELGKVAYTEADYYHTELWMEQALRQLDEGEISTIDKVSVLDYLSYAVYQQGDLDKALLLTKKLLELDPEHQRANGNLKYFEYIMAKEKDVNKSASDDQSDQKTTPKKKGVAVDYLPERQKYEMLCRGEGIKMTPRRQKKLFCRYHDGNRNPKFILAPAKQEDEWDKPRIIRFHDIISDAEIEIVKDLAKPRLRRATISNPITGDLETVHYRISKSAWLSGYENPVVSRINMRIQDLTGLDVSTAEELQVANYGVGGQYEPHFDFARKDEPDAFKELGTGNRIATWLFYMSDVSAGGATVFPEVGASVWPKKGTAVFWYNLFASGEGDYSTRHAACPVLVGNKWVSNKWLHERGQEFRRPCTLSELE", "T1 sequence (P07237 18-508 partner)": "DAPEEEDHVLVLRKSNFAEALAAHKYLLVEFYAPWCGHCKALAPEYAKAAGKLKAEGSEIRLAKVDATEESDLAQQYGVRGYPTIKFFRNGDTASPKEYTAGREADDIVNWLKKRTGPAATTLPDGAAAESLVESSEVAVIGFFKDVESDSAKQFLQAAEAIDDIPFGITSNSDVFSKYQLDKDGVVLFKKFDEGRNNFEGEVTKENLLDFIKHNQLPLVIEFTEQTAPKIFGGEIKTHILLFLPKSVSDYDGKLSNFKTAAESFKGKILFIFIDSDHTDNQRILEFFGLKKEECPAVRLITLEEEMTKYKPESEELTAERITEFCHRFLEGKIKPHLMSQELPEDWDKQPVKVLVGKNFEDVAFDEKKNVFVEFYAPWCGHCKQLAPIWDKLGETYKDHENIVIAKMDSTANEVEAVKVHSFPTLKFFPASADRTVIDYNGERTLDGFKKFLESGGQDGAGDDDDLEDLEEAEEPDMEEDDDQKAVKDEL", "assay": "dose-response inhibition of CP4H1 hydroxylation activity"}, "[2]": {"molecular_target": "T1, human CP4H1 (collagen prolyl 4-hydroxylase 1, alpha(I)2beta2 holoenzyme)", "assay": "Lineweaver-Burk analysis of CP4H1 activity"}, "[3]": {"molecular_target": "T1, human CP4H1 (collagen prolyl 4-hydroxylase 1, alpha(I)2beta2 holoenzyme)", "assay": "inhibition of CP4H1 activity in vitro", "details": "100 µM compound"}, "[4]": {"details": "Fe(II) and AKG dependent reaction"}}, "note": "Read-outs that look alike come from different tables or passages of the source."}
{"molecule": "O=C(O)c1ccc(-c2ncc(C(=O)O)s2)nc1", "note": "[pythiDC, 2 (5-carboxythiazol-2-yl)pyridine-5-carboxylic acid]", "values": [{"measurement": "inhibition", "setting": "human PHD2", "value": "inhibit human PHD2 only weakly (Figure S4), with pythiDC displaying especially low potency"}, {"measurement": "IC50", "setting": "[1]", "value": "4 ± 0.2", "unit": "µM"}, {"measurement": "Ki", "setting": "[2]", "value": "390 ± 40", "unit": "nM"}]}
{"molecule": "CCOC(=O)c1ccc(-c2ncc(C(=O)OCC)s2)nc1", "note": "[diethyl pythiDC]", "values": [{"measurement": "inhibition at 100 μM", "setting": "[3]", "value": "No inhibition of catalysis by CP4H1 or PHD2 was observed in vitro with these diethyl esters"}]}
{"molecule": "O=C(O)c1ccc(-c2ncc(C(=O)O)[nH]2)nc1", "note": "[pyimDC]", "values": [{"measurement": "IC50", "setting": "[1]; [4]", "value": "2.6 ± 0.1", "unit": "µM"}]}
{"molecule": "O=C(O)c1ccc(-c2ncc(C(=O)O)o2)nc1", "note": "[pyoxDC]", "values": [{"measurement": "IC50", "setting": "[1]; [4]", "value": "33 ± 8", "unit": "µM"}]}
